According to US7635572B2, “Methods for conducting assays for enzyme activity on protein microarrays” (Life Technologies Corporation, priority 2004, dated 2009):
Where two headings read alike, the source gives them in different places.

Legend:
Experiment in all cases: Further analysis of a plurality of inhibitors and a plurality of kinases on microarray (Example IX, Table 5);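 note: inhibition of each kinase by the inhibitors is given as a qualitative level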;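 for Inhibition level, FGFR2: level 0 none or unclear then 1 little or marginal then 2 substantial inhibition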;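 for Inhibition level, Homo sapiens in: level 0 none or unclear Level 1 marginal Level 2 substantial inhibition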;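 for Inhibition level, Homo sapiens, o: level 0 none or unclear Level 1 marginal Level 2 substantial inhibition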;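 for Inhibition level, LOC57118: level 0 none or unclear then 1 little or marginal then 2 substantial inhibition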;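 for Inhibition level, TBK1: level 0 no or unclear inhibition to Level 2 substantial inhibition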
Type in all cases: biochemical
[1] = target: plurality of kinases (Table 5) (Homo sapiens, UniProt Q8IU85); settings: plate D2; inhibitor 100 uM
Sequence of plurality of kinases (Table 5) (Homo sapiens, UniProt Q8IU85) (Q8IU85 whole entry): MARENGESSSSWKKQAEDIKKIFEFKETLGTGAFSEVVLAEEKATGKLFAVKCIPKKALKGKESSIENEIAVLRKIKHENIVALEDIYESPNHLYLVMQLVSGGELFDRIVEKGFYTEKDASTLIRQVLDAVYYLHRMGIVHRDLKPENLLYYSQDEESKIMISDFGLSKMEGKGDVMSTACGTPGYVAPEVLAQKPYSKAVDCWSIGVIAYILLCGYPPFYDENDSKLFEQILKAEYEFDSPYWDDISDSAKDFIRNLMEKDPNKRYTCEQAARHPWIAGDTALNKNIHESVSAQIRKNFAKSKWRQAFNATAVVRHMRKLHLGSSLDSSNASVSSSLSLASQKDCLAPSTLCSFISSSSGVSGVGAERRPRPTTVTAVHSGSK

[2] = target: T1, plurality of kinases (Table 5) (Homo sapiens, UniProt Q9UHD2); settings: plate G1; inhibitor 100 uM
T1 sequence (Q9UHD2 1-729): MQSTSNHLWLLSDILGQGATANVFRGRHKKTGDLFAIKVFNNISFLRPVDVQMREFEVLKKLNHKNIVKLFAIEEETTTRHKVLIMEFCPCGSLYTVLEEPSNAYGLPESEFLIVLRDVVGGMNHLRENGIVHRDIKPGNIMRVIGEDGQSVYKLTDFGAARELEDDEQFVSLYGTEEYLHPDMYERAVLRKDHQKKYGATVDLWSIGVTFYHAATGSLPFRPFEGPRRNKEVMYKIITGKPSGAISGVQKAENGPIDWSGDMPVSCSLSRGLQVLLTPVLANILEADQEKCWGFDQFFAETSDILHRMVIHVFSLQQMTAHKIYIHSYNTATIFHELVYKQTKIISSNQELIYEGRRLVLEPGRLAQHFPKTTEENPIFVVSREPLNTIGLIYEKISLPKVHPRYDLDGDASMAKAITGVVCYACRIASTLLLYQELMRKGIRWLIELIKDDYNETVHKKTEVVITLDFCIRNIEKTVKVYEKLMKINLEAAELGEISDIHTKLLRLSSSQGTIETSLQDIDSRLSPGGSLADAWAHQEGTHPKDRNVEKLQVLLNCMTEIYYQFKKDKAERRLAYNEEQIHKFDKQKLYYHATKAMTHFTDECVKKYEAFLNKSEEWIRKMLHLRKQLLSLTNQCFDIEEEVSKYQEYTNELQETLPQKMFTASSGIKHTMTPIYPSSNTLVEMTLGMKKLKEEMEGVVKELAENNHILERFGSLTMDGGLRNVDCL

[3] = target: plurality of kinases (Table 5) (Homo sapiens, UniProt P07948)
Sequence of plurality of kinases (Table 5) (Homo sapiens, UniProt P07948) (P07948 whole entry): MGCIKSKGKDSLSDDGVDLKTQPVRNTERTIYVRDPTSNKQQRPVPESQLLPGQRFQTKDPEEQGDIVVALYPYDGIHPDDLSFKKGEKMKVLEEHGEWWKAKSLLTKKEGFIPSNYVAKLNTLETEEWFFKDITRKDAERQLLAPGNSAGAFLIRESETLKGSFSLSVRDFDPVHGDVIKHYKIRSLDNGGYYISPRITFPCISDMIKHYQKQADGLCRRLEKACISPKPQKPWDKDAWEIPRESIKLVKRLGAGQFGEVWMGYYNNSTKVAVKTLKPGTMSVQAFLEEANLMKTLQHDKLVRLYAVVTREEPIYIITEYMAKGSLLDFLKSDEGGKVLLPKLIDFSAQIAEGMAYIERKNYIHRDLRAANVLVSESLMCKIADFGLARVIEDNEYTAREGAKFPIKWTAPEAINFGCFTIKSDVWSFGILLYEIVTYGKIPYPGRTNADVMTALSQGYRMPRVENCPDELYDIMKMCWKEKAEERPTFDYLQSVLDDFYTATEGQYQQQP

[4] = target: T2, plurality of kinases (Table 5) (Homo sapiens, UniProt Q12866); settings: plate B11; inhibitor 100 uM
T2 sequence (Q12866 21-999): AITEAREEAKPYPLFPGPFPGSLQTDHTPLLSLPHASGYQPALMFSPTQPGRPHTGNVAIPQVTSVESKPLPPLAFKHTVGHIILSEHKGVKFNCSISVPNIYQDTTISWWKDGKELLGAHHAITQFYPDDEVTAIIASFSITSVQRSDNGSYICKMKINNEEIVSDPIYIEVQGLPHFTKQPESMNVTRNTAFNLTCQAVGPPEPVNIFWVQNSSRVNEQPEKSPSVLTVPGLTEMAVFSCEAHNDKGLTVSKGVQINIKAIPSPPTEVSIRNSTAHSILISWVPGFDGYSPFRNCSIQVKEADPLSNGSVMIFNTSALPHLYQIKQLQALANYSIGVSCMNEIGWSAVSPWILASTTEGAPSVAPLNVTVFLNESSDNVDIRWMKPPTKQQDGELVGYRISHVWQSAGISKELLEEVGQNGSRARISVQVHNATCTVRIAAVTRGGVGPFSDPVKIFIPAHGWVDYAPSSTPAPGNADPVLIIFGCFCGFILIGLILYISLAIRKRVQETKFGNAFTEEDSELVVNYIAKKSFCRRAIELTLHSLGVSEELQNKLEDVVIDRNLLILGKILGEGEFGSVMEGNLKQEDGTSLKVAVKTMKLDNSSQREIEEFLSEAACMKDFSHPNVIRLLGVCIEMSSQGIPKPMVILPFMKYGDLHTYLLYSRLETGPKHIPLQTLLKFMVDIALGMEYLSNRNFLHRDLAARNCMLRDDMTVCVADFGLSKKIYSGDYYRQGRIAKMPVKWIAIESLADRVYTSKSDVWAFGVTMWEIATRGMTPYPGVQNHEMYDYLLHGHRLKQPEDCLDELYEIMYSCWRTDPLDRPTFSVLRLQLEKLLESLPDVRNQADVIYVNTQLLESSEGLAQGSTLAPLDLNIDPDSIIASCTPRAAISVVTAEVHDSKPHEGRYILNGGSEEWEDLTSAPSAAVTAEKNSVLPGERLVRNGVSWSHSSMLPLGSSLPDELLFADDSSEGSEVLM

[5] = test system: plurality of kinases (Table 5); settings: inhibitor 100 uM; for Inhibition level, Homo sapiens c: plate F4; for Inhibition level, Homo sapiens, o: plate F5; for Inhibition level, Homo sapiens, B: plate F7; for Inhibition level, Homo sapiens in: plate F9; for Inhibition level, Homo sapiens p: plate F10
[6] = target: plurality of kinases (Table 5) (Homo sapiens, UniProt P21802); settings: inhibitor 100 uM
Sequence of plurality of kinases (Table 5) (Homo sapiens, UniProt P21802) (P21802 22-821): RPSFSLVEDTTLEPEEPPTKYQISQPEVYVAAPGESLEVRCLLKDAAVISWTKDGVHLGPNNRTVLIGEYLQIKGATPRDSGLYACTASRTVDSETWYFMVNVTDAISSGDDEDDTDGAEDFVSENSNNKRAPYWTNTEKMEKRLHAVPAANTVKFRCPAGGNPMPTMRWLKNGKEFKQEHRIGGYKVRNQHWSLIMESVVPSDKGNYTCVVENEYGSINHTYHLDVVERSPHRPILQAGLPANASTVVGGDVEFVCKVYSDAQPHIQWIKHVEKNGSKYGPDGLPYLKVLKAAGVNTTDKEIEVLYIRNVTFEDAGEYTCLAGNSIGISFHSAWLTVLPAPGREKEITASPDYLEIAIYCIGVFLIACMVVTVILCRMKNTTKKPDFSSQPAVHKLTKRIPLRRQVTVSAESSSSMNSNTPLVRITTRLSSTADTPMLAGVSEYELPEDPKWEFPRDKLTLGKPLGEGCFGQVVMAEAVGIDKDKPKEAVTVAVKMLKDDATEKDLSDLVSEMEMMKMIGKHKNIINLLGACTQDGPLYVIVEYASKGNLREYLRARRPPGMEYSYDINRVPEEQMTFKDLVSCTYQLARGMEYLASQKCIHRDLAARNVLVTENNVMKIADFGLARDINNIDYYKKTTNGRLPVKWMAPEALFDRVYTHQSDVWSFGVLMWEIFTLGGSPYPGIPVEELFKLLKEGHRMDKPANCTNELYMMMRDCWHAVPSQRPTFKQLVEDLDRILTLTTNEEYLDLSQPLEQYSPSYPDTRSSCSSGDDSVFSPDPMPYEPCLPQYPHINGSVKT

[7] = target: T3, plurality of kinases (Table 5) (Homo sapiens, UniProt Q8IV63); settings: plate C12
T3 sequence (Q8IV63 1-474): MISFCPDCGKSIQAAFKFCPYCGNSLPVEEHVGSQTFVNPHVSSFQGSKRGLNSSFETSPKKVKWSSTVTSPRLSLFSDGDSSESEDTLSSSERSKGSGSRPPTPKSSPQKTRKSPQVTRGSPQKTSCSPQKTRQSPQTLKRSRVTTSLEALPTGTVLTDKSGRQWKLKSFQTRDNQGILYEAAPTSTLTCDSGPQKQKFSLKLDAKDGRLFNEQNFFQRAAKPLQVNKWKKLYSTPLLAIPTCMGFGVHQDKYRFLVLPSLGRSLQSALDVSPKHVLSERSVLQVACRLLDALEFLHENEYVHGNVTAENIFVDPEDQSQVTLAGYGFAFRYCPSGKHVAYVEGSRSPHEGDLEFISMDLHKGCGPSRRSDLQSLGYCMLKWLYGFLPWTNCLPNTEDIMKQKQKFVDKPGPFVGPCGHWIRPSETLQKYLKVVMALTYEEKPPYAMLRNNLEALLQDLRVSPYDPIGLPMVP

[8] = target: plurality of kinases (Table 5) (Homo sapiens, UniProt P11362); settings: plate D12; inhibitor 100 uM
Sequence of plurality of kinases (Table 5) (Homo sapiens, UniProt P11362) (P11362 22-822): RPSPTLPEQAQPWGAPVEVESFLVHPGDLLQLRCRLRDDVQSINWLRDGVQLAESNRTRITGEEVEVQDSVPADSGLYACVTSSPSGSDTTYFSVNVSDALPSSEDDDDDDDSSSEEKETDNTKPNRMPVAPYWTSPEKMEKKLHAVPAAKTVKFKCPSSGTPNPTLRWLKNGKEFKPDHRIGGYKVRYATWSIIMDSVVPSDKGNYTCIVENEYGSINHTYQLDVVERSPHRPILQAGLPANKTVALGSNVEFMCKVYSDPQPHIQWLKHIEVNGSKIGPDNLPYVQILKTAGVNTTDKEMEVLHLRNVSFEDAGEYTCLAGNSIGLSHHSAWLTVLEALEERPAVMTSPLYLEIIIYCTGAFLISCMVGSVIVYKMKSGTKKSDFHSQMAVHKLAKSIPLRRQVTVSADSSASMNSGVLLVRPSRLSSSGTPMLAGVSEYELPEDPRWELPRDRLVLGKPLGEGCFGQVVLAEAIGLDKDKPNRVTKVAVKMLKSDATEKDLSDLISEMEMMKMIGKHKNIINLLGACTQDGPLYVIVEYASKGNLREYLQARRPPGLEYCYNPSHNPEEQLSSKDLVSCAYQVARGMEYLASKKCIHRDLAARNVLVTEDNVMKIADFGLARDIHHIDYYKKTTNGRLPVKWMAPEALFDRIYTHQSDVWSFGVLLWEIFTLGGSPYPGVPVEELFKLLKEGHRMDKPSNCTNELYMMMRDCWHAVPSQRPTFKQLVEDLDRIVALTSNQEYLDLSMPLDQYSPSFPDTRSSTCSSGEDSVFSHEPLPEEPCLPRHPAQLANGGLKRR

[9] = target: plurality of kinases (Table 5) (Homo sapiens, UniProt Q00536); settings: plate A3; inhibitor 100 uM
Sequence of plurality of kinases (Table 5) (Homo sapiens, UniProt Q00536) (Q00536 whole entry): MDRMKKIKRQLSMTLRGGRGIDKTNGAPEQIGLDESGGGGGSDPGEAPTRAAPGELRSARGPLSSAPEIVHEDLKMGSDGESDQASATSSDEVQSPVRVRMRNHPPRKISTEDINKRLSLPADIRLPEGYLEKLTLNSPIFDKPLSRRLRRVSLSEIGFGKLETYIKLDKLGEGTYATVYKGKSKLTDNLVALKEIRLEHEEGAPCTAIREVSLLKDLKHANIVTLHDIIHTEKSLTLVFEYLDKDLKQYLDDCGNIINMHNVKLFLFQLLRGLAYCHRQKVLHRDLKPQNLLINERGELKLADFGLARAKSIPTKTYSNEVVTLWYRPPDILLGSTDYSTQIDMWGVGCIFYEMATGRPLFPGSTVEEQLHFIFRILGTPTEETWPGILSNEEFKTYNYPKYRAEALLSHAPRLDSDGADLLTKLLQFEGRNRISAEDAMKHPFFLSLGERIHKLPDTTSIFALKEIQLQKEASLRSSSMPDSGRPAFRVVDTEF

[10] = plate A5, Domain 0, inhibitor 100 uM

Structure (SMILES) | Inhibition level, LOC57118 [1] | Inhibition level, TBK1 [2] | Inhibition level, LYN [3, 10] | Inhibition level, MERTK [4] | Inhibition level, Homo sapiens, S ([5]; plate E9) | Inhibition level, Homo sapiens, s ([5]; plate E11) | Inhibition level, Homo sapiens, s ([5]; plate F3) | Inhibition level, Homo sapiens c [5] | Inhibition level, Homo sapiens, o [5] | Inhibition level, Homo sapiens, S ([5]; plate F6) | Inhibition level, Homo sapiens, B [5] | Inhibition level, Homo sapiens, s ([5]; plate F8) | Inhibition level, Homo sapiens in [5] | Inhibition level, Homo sapiens p [5] | Inhibition level, FGFR2 ([6]; plate B4) | Inhibition level, FGFR2 ([6]; plate G8) | Inhibition level, LOC51231 ([7]; inhibitor 100 uM) | Inhibition level, FGFR1 [8] | Inhibition level, PCTK1 [9] | further results
COc1cc2ncnc(Nc3cccc(Cl)c3)c2cc1OC [AG 1478] | 0 | 2 | 2 | 2 | 0 | 2 | 2 | 2 | 2 | 1 | 2 | 0 | 2 | 2 | 2 | 2 | 0 | 1 | 0 | –
CC(=O)c1c(O)c(C)c(O)c(Cc2c(O)c3c(c(C(=O)/C=C/c4ccccc4)c2O)OC(C)(C)C=C3)c1O [Rottlerin (Mallotoxin)] | 0 | 1 | 2 | 2 | 2 | 2 | 0 | 0 | 0 | 0 | 2 | 0 | 0 | 2 | 0 | 2 | 0 | 1 | 0 | –
CN[C@@H]1C[C@H]2O[C@@](C)([C@@H]1OC)n1c3ccccc3c3c4c(c5c6ccccc6n2c5c31)C(=O)NC4 [Staurosporine] | – | – | – | – | – | – | – | – | – | – | – | – | – | – | – | – | – | – | – | Inhibition level, LYN [3]: 0; Inhibition level, LOC51231 ([7]; Staurosporine 21.5 uM): 0
N#C/C(=C/c1ccc(O)c(O)c1)C(=O)NCc1ccccc1 [AG 490] | 1 | 2 | 2 | 2 | 0 | 2 | 0 | 2 | 2 | 0 | 2 | 0 | 1 | 2 | 2 | 2 | 0 | 0 | 0 | –
O=S(=O)(NCCNC/C=C/c1ccc(Br)cc1)c1cccc2cnccc12 [H-89] | 1 | 2 | 2 | 2 | 2 | 1 | 2 | 2 | 1 | 2 | 0 | 1 | 2 | 2 | 2 | 2 | 2 | 1 | 2 | –
CC(C)(C)n1nc(-c2ccc(Cl)cc2)c2c(N)ncnc21 [PP2] | 0 | 1 | 2 | 2 | 2 | 2 | 2 | 2 | 2 | 2 | 2 | 0 | 2 | 2 | 2 | 2 | 0 | 2 | 1 | –
O=c1c(O)c(-c2ccc(O)c(O)c2)oc2cc(O)cc(O)c12 [Quercetin] | 0 | 0 | 2 | 1 | – | – | – | – | – | – | – | – | – | – | 0 | 0 | 0 | – | 0 | –
